This is an account of results in patent US8008326B2, “4-benzyledene-piperidin derivatives” (Richter Gedeon Vegyeszeti Gyar Rt., priority 2004, dated 2011).

The conditions of series [1]: cited from earlier work.
In series [2] the target is T1, recombinant NMDA receptors NR1/NR2A (HEK293 cells) (Homo sapiens, UniProt Q12879).
T1 construct: expressed in transfected cells
Kind of series: Inhibition of NMDA evoked cytosolic calcium elevation in HEK293 cells transfected with NR1/NR2A. The note with it: HEK293; read-out: NR1-3/NR2A % inhibition at 10 μM. It counts as cell-based. The method, then:
Expression of Recombinant NMDA Receptors
(1997); Neurochemistry International, 43, 19-29. (2003)]. […] Compounds were tested for their inhibitory action on NMDA evoked cytosolic calcium elevations in fluorescent calcium measurements. Studies were performed 48-72 h after addition of the inducing agent. Ketamine (500 μM) was also present during the induction in order to prevent cytotoxicity.
Dose-response curves and IC50-values were calculated using data derived from at least three independent experiments. Inhibitory potency of a compound at a single concentration point was expressed as percent inhibition of the NMDA response. Sigmoidal concentration-inhibition curves were fit to the data and IC50 values were determined as the concentration that produces half of the maximal inhibition caused by the compound.

For a further series, the system named is NMRI mice. Kind of series: Mouse formalin test, second phase, oral administration. It counts as in vivo. The settings on record: 15 min before formalin, licking 20 to 25 min after injection. The method, then:
Injection of diluted formalin into the hind paw of rats or mice is known to elicit a biphasic pain-related behaviour measured as time spent by licking/biting of the injured paw. The second phase is generally defined as pain related events detected in the 15-60 min. time interval after formalin injection, with peak activity at around 30 min. It is known that NMDA receptors are involved in the second phase of response to formalin injection and this behavioural response is sensitive to blockade of NMDA receptors [Dickenson, A. and Besson J.-M. (Editors): Chapter 1, pp. 6-7: Animal models of Analgesia; and Chapter 8, pp. 180-183. Mechanism of Central Hypersensitivity: Excitatory Amino Acid Mechanisms and Their Control—In Pharmacology of Pain. Springer-Verlag (Berlin) 1997.] Therefore, we used the second phase of formalin test to characterize the efficacy of compounds in vivo. Inhibition of the second phase of response is considered to indicate an analgesic effect against chemically-induced persistent pain [Hurker, S., et al.: Formalin Test in Mice, a Useful Technique for Evaluating Mild Analgesics, Journal of Neuroscience Methods, 14 (1985) 69-76.]
Male NMRI […] (20-25 g) were used. Prior to the experiment any solid food was withdrawn for approx. 16 hours but the animals had free access to 20% glucose solution. The animals were allowed 1 hour acclimatization period in a glass cylinder (cc. 15 cm in diameter), then moved to an identical cylinder with a mirror placed behind to facilitate observation. The test substances were suspended in 5% tween-80 (10 ml per kg body weight). and administered orally by gavage 15 min before the formalin injection (20 μl of 1% formalin in 0.9& saline injected subcutaneously into the dorsal surface of the right hindpaw). The time spent by licking and biting of the injected paw was measured from 20 to 25 min. after the formalin injection.

Where two headings read alike, the source gives them in different places.

T1 sequence (Q12879 23-1464, other chains not shown): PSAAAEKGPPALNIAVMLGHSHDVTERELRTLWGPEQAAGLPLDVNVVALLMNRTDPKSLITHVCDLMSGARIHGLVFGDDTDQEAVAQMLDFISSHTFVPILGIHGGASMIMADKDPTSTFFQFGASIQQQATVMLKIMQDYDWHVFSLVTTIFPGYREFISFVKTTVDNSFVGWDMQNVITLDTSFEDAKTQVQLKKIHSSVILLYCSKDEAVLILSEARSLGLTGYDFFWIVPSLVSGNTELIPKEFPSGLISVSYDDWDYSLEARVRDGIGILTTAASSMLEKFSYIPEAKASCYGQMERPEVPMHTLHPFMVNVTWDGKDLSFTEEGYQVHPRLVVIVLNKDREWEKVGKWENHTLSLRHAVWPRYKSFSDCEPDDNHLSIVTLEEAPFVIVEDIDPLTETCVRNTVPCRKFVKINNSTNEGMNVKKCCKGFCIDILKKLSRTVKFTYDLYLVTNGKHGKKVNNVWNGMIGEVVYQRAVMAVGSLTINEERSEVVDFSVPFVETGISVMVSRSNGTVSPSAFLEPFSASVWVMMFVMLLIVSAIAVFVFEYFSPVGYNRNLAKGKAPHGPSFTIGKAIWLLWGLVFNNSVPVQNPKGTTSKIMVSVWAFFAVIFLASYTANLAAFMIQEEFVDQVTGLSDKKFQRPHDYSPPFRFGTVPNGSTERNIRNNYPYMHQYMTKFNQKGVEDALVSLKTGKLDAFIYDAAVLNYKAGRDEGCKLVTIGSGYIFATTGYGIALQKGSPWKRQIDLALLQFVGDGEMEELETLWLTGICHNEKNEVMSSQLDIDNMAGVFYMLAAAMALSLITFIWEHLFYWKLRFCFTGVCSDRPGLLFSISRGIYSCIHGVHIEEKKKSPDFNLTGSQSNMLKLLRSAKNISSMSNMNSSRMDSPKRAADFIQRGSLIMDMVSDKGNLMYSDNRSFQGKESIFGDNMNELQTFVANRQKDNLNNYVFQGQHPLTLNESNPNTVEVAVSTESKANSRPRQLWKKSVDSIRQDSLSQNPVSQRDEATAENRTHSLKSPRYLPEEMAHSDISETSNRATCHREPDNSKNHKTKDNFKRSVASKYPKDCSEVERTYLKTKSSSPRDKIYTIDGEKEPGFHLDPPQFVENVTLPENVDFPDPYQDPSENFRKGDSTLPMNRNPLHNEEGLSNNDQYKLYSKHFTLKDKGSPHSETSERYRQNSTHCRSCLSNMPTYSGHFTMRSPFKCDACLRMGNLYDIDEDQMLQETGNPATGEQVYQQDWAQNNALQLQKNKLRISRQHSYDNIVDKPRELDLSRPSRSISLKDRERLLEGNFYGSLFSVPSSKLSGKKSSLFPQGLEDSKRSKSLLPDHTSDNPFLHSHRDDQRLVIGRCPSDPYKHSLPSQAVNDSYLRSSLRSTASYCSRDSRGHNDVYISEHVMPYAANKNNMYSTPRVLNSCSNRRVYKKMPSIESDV

As usually defined, the ED50 is the midpoint of the dose-response relation. A higher ED50 goes with a need for a large dose. Take `C[C@@H](CN1CCC(Cc2ccccc2)CC1)[C@@H](O)c1ccc(O)cc1` [Ro 25.6981, R—(R*,S*)-1-(4-hydroxyphenyl)-2-methyl-3-[4-(phenylmethyl)piperidine-1-yl]-1-propanol]: the “effect on locomotor activity” value is recorded as “increase locomotor activity” in series [1] (J. Pharmacol. Exp. Ther. 302 (2002), Behav. Pharmacol. 14 (2003)) and “no such effect was observed” in series [1] (other group, Neuropharmacology 38 (1999)). In series [2], the inhibition at 10 µM stood at 1%. In the series with NMRI mice, the ED50 is more than 20 mg/kg.
